Key:
morningglory = experiment: Test B pre/postemergence morningglory; assay type: in vivo, Ipomoea hederacea
Source text: (§1) Seeds of bedstraw (Galium aparine), blackgrass (Alopecurus myosuroides), surinam grass (Brachiaria decumbens), cocklebur (Xanthium strumarium), corn (Zea mays), crabgrass (Digitaria sanguinalis), giant foxtail (Setaria faberii), morningglory (Ipomoea hederacea), pigweed (Amaranthus retroflexus), rape (Brassica napus), soybean (Glycine max), sugar beet (Beta vulgaris), velvetleaf (Abutilon theophrasti), wheat (Triticum aestivum), wild oat (Avena fatua) and purple nutsedge (Cyperus rotundus) tubers were planted and treated preemnergence with test chemicals formulated in a non-phytotoxic solvent mixture which included a surfactant.
(§2) At the same time, these crop and weed species were also treated with postemergence applications of test chemicals formulated in the same manner. Plants ranged in height from 2 to 18 cm (1- to 4-leaf stage) for postemergence treatments. Plant species in the flood test consisted of rice (Oryza sativa), smallflower flatsedge (Cyperus difformis), duck salad (Heteranthera limosa) and bamyardgrass (Echinochloa crus-galli) grown to the 2-leaf stage for testing. Treated plants and controls were maintained in a greenhouse for twelve to sixteen days, after which all species were compared to controls and visually evaluated. Plant response ratings, summarized in Table B, are based on a scale of 0 to 10 where 0 is no effect and 10 is complete control. A dash (−) response means no test result.

sugar beet = experiment: Test B pre/postemergence sugar beet; assay type: in vivo, Beta vulgaris; conditions: for Plant response rating, Sugarbeets: Rate 250 g/ha
Source text: as §1, §2

bedstraw = experiment: Test B pre/postemergence bedstraw; assay type: in vivo, Galium aparine
In short: (§3)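 Response is a visual 0-to-10 score relative to untreated plants, where 0 means no effect and 10 means complete control, taken twelve to sixteen days after application. Treatments went onto soil at planting and onto foliage of 1- to 4-leaf plants, using a surfactant-containing non-phytotoxic solvent.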

soybean = experiment: Test B pre/postemergence soybean; assay type: in vivo, Glycine max
In short: as §3

wheat = experiment: Test B pre/postemergence wheat; assay type: in vivo, Triticum aestivum; conditions: for Plant response rating, Wheat: Rate 250 g/ha
Source text: as §1, §2

giant foxtail = experiment: Test B pre/postemergence giant foxtail; assay type: in vivo, Setaria faberii
Source text: as §1, §2

cocklebur = experiment: Test B pre/postemergence cocklebur; assay type: in vivo, Xanthium strumarium
Source text: as §1, §2

purple nutsedge = experiment: Test B pre/postemergence purple nutsedge; assay type: in vivo, Cyperus rotundus
In short: as §3

wild oat = experiment: Test B pre/postemergence wild oat; assay type: in vivo, Avena fatua; conditions: for Plant response rating, Wild oats: Rate 250 g/ha
Source text: as §1, §2

blackgrass = experiment: Test B pre/postemergence blackgrass; assay type: in vivo, Alopecurus myosuroides
Source text: as §1, §2

pigweed = experiment: Test B pre/postemergence pigweed; assay type: in vivo, Amaranthus retroflexus
Source text: as §1, §2

crabgrass = experiment: Test B pre/postemergence crabgrass; assay type: in vivo, Digitaria sanguinalis
Source text: as §1, §2

rape = experiment: Test B pre/postemergence rape; assay type: in vivo, Brassica napus
Source text: as §1, §2

surinam grass = experiment: Test B pre/postemergence surinam grass; assay type: in vivo, Brachiaria decumbens
Source text: as §1, §2

corn = experiment: Test B pre/postemergence corn; assay type: in vivo, Zea mays
Source text: as §1, §2

velvetleaf = experiment: Test B pre/postemergence velvetleaf; assay type: in vivo, Abutilon theophrasti; conditions: for Plant response rating, Velvetleaf: Rate 250 g/ha
Source text: as §1, §2

[1] = Postemergence, Rate 125 g/ha, scale of 0 to 10 where 0 is no effect and 10 is complete control
[2] = Postemergence, Rate 250 g/ha, scale 0 to 10, 0 no effect, 10 complete control
[3] = Preemergence, Rate 62 g/ha, scale 0 to 10 (0 no effect, 10 complete control)
[4] = Preemergence, Rate 125 g/ha, scale 0 to 10 (0 no effect, 10 complete control)
[5] = Preemergence, Rate 250 g/ha, scale of 0 to 10 where 0 is no effect and 10 is complete control
[6] = Preemergence, Rate 500 g/ha, scale 0 to 10 (0 no effect, 10 complete control)
[7] = Rate 62 g/ha, Postemergence, scale of 0 to 10 where 0 is no effect and 10 is complete control
[8] = Rate 500 g/ha, Postemergence, scale 0 to 10, 0 no effect, 10 complete control
[9] = Preemergence, Rate 125 g/ha, 0 is no effect, 10 is complete control
[10] = Preemergence, scale of 0 to 10 where 0 is no effect and 10 is complete control
[11] = Postemergence, scale 0 to 10, 0 is no effect, 10 is complete control
[12] = Rate 250 g/ha, Postemergence, scale 0 to 10, 0 is no effect, 10 is complete control

## COc1ccccc1Cn1c(=O)on(C(=O)N(c2ccccc2)C(C)C)c1=O [Compound 104]
morningglory; [1]
  Morningglory plant response rating: 10
morningglory; [2]
  Morningglory plant response rating: 10
morningglory; [3]
  Morningglory plant response rating: 0
morningglory; [4]
  Plant response rating, Morningglory: 0
morningglory; [5]
  Plant response rating, Morningglory: 0
morningglory; [6]
  Morningglory plant response rating: 0
morningglory; [7]
  Morningglory plant response rating: 10
morningglory; [8]
  Morningglory plant response rating: 10
Sugar beet; [1]
  Sugarbeets plant response rating: 1
Sugar beet; [3]
  Sugarbeets plant response rating: 0
Sugar beet; [9]
  Sugarbeets plant response rating (0 to 10 scale): 0
Sugar beet; [10]
  Plant response rating, Sugarbeets: 1
Sugar beet; [6]
  Sugarbeets plant response rating: 6
Sugar beet; [7]
  Sugarbeets plant response rating: 0
Sugar beet; [11]
  Plant response rating, Sugarbeets: 1
Sugar beet; [8]
  Sugarbeets plant response rating: 3
bedstraw; [3]
  Bedstraw plant response rating: 0
bedstraw; [4]
  Plant response rating, Bedstraw: 0
bedstraw; [5]
  Plant response rating, Bedstraw: 0
bedstraw; [6]
  Bedstraw plant response rating: 0
bedstraw; [8]
  Bedstraw plant response rating: 6
soybean; [1]
  Soybean plant response rating: 5
soybean; [3]
  Soybean plant response rating: 0
soybean; [4]
  Plant response rating, Soybean: 0
soybean; [5]
  Plant response rating, Soybean: 0
soybean; [6]
  Soybean plant response rating: 0
soybean; [7]
  Soybean plant response rating: 4
soybean; [12]
  Plant response rating, Soybean: 5
soybean; [8]
  Soybean plant response rating: 5
wheat; [1]
  Wheat plant response rating: 0
wheat; [3]
  Wheat plant response rating: 0
wheat; [9]
  Wheat plant response rating (0 to 10 scale): 0
wheat; [10]
  Plant response rating, Wheat: 0
wheat; [6]
  Wheat plant response rating: 4
wheat; [7]
  Wheat plant response rating: 0
wheat; [11]
  Plant response rating, Wheat: 0
wheat; [8]
  Wheat plant response rating: 0
Giant foxtail; [1]
  Giant foxtail plant response rating: 3
Giant foxtail; [2]
  Giant foxtail plant response rating: 4
Giant foxtail; [3]
  Giant foxtail plant response rating: 0
Giant foxtail; [4]
  Plant response rating, Giant foxtail: 4
Giant foxtail; [5]
  Plant response rating, Giant foxtail: 10
Giant foxtail; [6]
  Giant foxtail plant response rating: 10
Giant foxtail; [7]
  Giant foxtail plant response rating: 3
Giant foxtail; [8]
  Giant foxtail plant response rating: 8
cocklebur; [1]
  Cocklebur plant response rating: 0
cocklebur; [2]
  Cocklebur plant response rating: 2
cocklebur; [4]
  Plant response rating, Cocklebur: 0
cocklebur; [5]
  Plant response rating, Cocklebur: 0
cocklebur; [6]
  Cocklebur plant response rating: 0
cocklebur; [7]
  Cocklebur plant response rating: 0
cocklebur; [8]
  Cocklebur plant response rating: 3
Purple nutsedge; [1]
  Nutsedge plant response rating: 0
Purple nutsedge; [2]
  Nutsedge plant response rating: 0
Purple nutsedge; [3]
  Nutsedge plant response rating: 0
Purple nutsedge; [4]
  Plant response rating, Nutsedge: 0
Purple nutsedge; [5]
  Plant response rating, Nutsedge: 0
Purple nutsedge; [6]
  Nutsedge plant response rating: 0
Purple nutsedge; [7]
  Nutsedge plant response rating: 0
Purple nutsedge; [8]
  Nutsedge plant response rating: 0
Wild oat; [1]
  Wild oats plant response rating: 0
Wild oat; [3]
  Wild oats plant response rating: 0
Wild oat; [9]
  Wild oats plant response rating (0 to 10 scale): 2
Wild oat; [10]
  Plant response rating, Wild oats: 4
Wild oat; [6]
  Wild oats plant response rating: 7
Wild oat; [7]
  Wild oats plant response rating: 0
Wild oat; [11]
  Plant response rating, Wild oats: 0
Wild oat; [8]
  Wild oats plant response rating: 2
blackgrass; [1]
  Blackgrass plant response rating: 0
blackgrass; [2]
  Blackgrass plant response rating: 5
blackgrass; [3]
  Blackgrass plant response rating: 0
blackgrass; [4]
  Plant response rating, Blackgrass: 3
blackgrass; [5]
  Plant response rating, Blackgrass: 6
blackgrass; [6]
  Blackgrass plant response rating: 7
blackgrass; [7]
  Blackgrass plant response rating: 0
blackgrass; [8]
  Blackgrass plant response rating: 6
pigweed; [1]
  Redroot pigweed plant response rating: 3
pigweed; [3]
  Redroot pigweed plant response rating: 0
pigweed; [4]
  Plant response rating, Redroot pigweed: 0
pigweed; [5]
  Plant response rating, Redroot pigweed: 0
pigweed; [6]
  Redroot pigweed plant response rating: 4
pigweed; [7]
  Redroot pigweed plant response rating: 1
pigweed; [12]
  Plant response rating, Redroot pigweed: 3
pigweed; [8]
  Redroot pigweed plant response rating: 7
crabgrass; [1]
  Crabgrass plant response rating: 4
crabgrass; [2]
  Crabgrass plant response rating: 5
crabgrass; [3]
  Crabgrass plant response rating: 0
crabgrass; [4]
  Plant response rating, Crabgrass: 0
crabgrass; [5]
  Plant response rating, Crabgrass: 1
crabgrass; [6]
  Crabgrass plant response rating: 9
crabgrass; [7]
  Crabgrass plant response rating: 0
crabgrass; [8]
  Crabgrass plant response rating: 8
rape; [1]
  Rape plant response rating: 0
rape; [2]
  Rape plant response rating: 0
rape; [3]
  Rape plant response rating: 0
rape; [4]
  Plant response rating, Rape: 0
rape; [5]
  Plant response rating, Rape: 0
rape; [6]
  Rape plant response rating: 0
rape; [7]
  Rape plant response rating: 0
rape; [8]
  Rape plant response rating: 2
Surinam grass; Postemergence, Rate 62 g/ha, scale 0 to 10, 0 is no effect, 10 is complete control
  B. signalgrass plant response rating: 0
Surinam grass; [2]
  B. signalgrass plant response rating: 0
Surinam grass; [3]
  B. signalgrass plant response rating: 0
Surinam grass; [4]
  Plant response rating, B. signalgrass: 0
Surinam grass; [5]
  Plant response rating, B. signalgrass: 5
Surinam grass; [6]
  B. signalgrass plant response rating: 6
Surinam grass; Rate 125 g/ha, Postemergence, scale 0 to 10, 0 no effect, 10 complete control
  B. signalgrass plant response rating: 0
Surinam grass; Rate 500 g/ha, Postemergence, scale of 0 to 10 where 0 is no effect and 10 is complete control
  B. signalgrass plant response rating: 0
corn; [1]
  Corn plant response rating: 0
corn; [2]
  Corn plant response rating: 0
corn; [3]
  Corn plant response rating: 0
corn; [4]
  Plant response rating, Corn: 0
corn; [5]
  Plant response rating, Corn: 0
corn; [6]
  Corn plant response rating: 2
corn; [7]
  Corn plant response rating: 0
corn; [8]
  Corn plant response rating: 0
velvetleaf; [1]
  Velvetleaf plant response rating: 0
velvetleaf; [3]
  Velvetleaf plant response rating: 0
velvetleaf; [9]
  Velvetleaf plant response rating (0 to 10 scale): 0
velvetleaf; [10]
  Plant response rating, Velvetleaf: 0
velvetleaf; [6]
  Velvetleaf plant response rating: 0
velvetleaf; [7]
  Velvetleaf plant response rating: 0
velvetleaf; [11]
  Plant response rating, Velvetleaf: 3
velvetleaf; [8]
  Velvetleaf plant response rating: 3

— patent US6737383B1, “Herbicidal oxadiazolidines” (priority 1999, dated 2004)
